This assay deals with MV-4-11 cells. The assay is described as follows: Gene expression microarray analysis (Affymetrix PrimeView) and GSEA. The class given is cell-based, human. Conditions: ProbeSet 11762504_a_at; LIST D. The arrangement: RFU PODN (11730768_x_at) / Fold change /veh PODN (11730768_x_at) / RFU LINC00158 (11744669_a_at) / Fold change /veh LINC00158 (11744669_a_at) / RFU DUSP10 (11751237_a_at) / Fold change /veh DUSP10 (11751237_a_at) / RFU ID3 (11757404_x_at) / Fold change /veh ID3 (11757404_x_at) / RFU PLEKHG5 (11737974_s_at) / Fold change /veh PLEKHG5 (11737974_s_at) / RFU LRRC4B (11730491_at) / Fold change /veh LRRC4B (11730491_at) / RFU GIMAP4 (11747438_a_at) / Fold change /veh GIMAP4 (11747438_a_at) / RFU KRT8 (11758183_x_at) / Fold change /veh KRT8 (11758183_x_at) / RFU CNN1 (11734310_a_at) / Fold change /veh CNN1 (11734310_a_at) / RFU VPS37D (11726825_at) / Fold change /veh VPS37D (11726825_at) / RFU C10orf10 (11716522_x_at) / Fold change /veh C10orf10 (11716522_x_at) / RFU KIR2DL2 /// KIR2DL4 /// KIR2DL5A /// KIR2DL5B /// KIR2DS1 /// KIR2DS2 /// KIR2DS3 /// KIR2DS4 /// KIR3DL3 /// KIR3DL3 /// KIR3DS1 (11738374_at) / Fold change /veh KIR2DL2 /// KIR2DL4 /// KIR2DL5A /// KIR2DL5B /// KIR2DS1 /// KIR2DS2 /// KIR2DS3 /// KIR2DS4 /// KIR3DL3 /// KIR3DL3 /// KIR3DS1 (11738374_at) / RFU C1QL1 (11718748_at) / Fold change /veh C1QL1 (11718748_at) / RFU TMPRSS4 (11747572_a_at) / Fold change /veh TMPRSS4 (11747572_a_at) / RFU HAMP (11756126_x_at) / Fold change /veh HAMP (11756126_x_at) / RFU RNFT2 (11725882_a_at) / Fold change /veh RNFT2 (11725882_a_at) / RFU NR4A2 (11747474_a_at) / Fold change /veh NR4A2 (11747474_a_at) / RFU ABCC12 (11746883_a_at) / Fold change /veh ABCC12 (11746883_a_at) / RFU TMEM136 (11760407_x_at) / Fold change /veh TMEM136 (11760407_x_at) / RFU CLDN22 /// WWC2 (11732394_at) / Fold change /veh CLDN22 /// WWC2 (11732394_at) / RFU HLA-DPB1 (11760878_x_at) / Fold change /veh HLA-DPB1 (11760878_x_at) / RFU SPINT1 (11716480_a_at) / Fold change /veh SPINT1 (11716480_a_at) / RFU GAP43 (11754022_s_at) / Fold change /veh GAP43 (11754022_s_at) / RFU A4GNT (11735810_at) / Fold change /veh A4GNT (11735810_at) / RFU PRB3 (11715151_x_at) / Fold change /veh PRB3 (11715151_x_at) / RFU TUBB4B (11761932_at) / Fold change /veh TUBB4B (11761932_at) / RFU CAPN14 (11732068_a_at) / Fold change /veh CAPN14 (11732068_a_at) / RFU TMCC2 (11721928_a_at) / Fold change /veh TMCC2 (11721928_a_at) / RFU IRGQ (11745062_a_at) / Fold change /veh IRGQ (11745062_a_at) / RFU FAM174B (11720279_a_at) / Fold change /veh FAM174B (11720279_a_at) / RFU TMPRSS4 (11748680_a_at) / Fold change /veh TMPRSS4 (11748680_a_at) / RFU FAM212B (11763350_a_at) / Fold change /veh FAM212B (11763350_a_at) / RFU PLEKHG5 (11743358_a_at) / Fold change /veh PLEKHG5 (11743358_a_at) / RFU ZSCAN30 (11745921_a_at) / Fold change /veh ZSCAN30 (11745921_a_at) / RFU CMKLR1 (11741424_a_at) / Fold change /veh CMKLR1 (11741424_a_at) / RFU LOC101060620 /// MAPK8IP1 (11723275_at) / Fold change /veh LOC101060620 /// MAPK8IP1 (11723275_at) / RFU SPTSSB (11747773_x_at) / Fold change /veh SPTSSB (11747773_x_at) / RFU PRSS12 (11739890_at) / Fold change /veh PRSS12 (11739890_at) / RFU BIN1 (11741810_x_at) / Fold change /veh BIN1 (11741810_x_at) / RFU WNT11 (11732464_a_at) / Fold change /veh WNT11 (11732464_a_at) / RFU C10orf10 (11716521_a_at) / Fold change /veh C10orf10 (11716521_a_at) / RFU C5orf56 (11738089_at) / Fold change /veh C5orf56 (11738089_at) / RFU CYB561 (11721691_x_at) / Fold change /veh CYB561 (11721691_x_at) / RFU ANKRD19P (11752326_a_at) / Fold change /veh ANKRD19P (11752326_a_at) / RFU OR2T12 /// OR2T33 /// OR2T8 (11738714_s_at) / Fold change /veh OR2T12 /// OR2T33 /// OR2T8 (11738714_s_at) / RFU VCAN (11748164_a_at) / Fold change /veh VCAN (11748164_a_at) / RFU JSRP1 (11732532_at) / Fold change /veh JSRP1 (11732532_at) / RFU KRTAP10-11 (11738290_x_at) / Fold change /veh KRTAP10-11 (11738290_x_at) / RFU MYO3A (11730013_a_at) / Fold change /veh MYO3A (11730013_a_at) / RFU EBF3 (11725865_a_at) / Fold change /veh EBF3 (11725865_a_at) / RFU CAMK2N1 (11719241_x_at) / Fold change /veh CAMK2N1 (11719241_x_at) / RFU C5orf56 (11738088_a_at) / Fold change /veh C5orf56 (11738088_a_at) / RFU OLFML3 (11715873_a_at) / Fold change /veh OLFML3 (11715873_a_at) / RFU LOC100653217 /// NTM (11731650_a_at) / Fold change /veh LOC100653217 /// NTM (11731650_a_at) / RFU MAPK11 (11762145_a_at) / Fold change /veh MAPK11 (11762145_a_at) / RFU FIZ1 (11724087_x_at) / Fold change /veh FIZ1 (11724087_x_at) / RFU OASL (11726364_x_at) / Fold change /veh OASL (11726364_x_at) / RFU SOX15 (11748057_x_at) / Fold change /veh SOX15 (11748057_x_at) / RFU CD79A (11719716_a_at) / Fold change /veh CD79A (11719716_a_at) / RFU HIST1H1D (11736915_at) / Fold change /veh HIST1H1D (11736915_at) / RFU CASKIN2 (11723855_a_at) / Fold change /veh CASKIN2 (11723855_a_at) / RFU LOC730098 (11760151_x_at) / Fold change /veh LOC730098 (11760151_x_at) / RFU OR4N2 (11742367_at) / Fold change /veh OR4N2 (11742367_at) / RFU PRRT2 (11749266_a_at) / Fold change /veh PRRT2 (11749266_a_at) / RFU SNX32 (11753110_a_at) / Fold change /veh SNX32 (11753110_a_at) / RFU CDHR5 (11726645_a_at) / Fold change /veh CDHR5 (11726645_a_at) / RFU RCAN1 (11760418_a_at) / Fold change /veh RCAN1 (11760418_a_at) / RFU FAM167A (11723789_a_at) / Fold change /veh FAM167A (11723789_a_at) / RFU FAM26E (11764081_at) / Fold change /veh FAM26E (11764081_at) / RFU ISYNA1 (11749810_s_at) / Fold change /veh ISYNA1 (11749810_s_at) / RFU ACY1 (11761880_at) / Fold change /veh ACY1 (11761880_at) / RFU 11764098_at / Fold change /veh 11764098_at / RFU SAMD14 (11745864_x_at) / Fold change /veh SAMD14 (11745864_x_at) / RFU NPB (11741838_a_at) / Fold change /veh NPB (11741838_a_at) / RFU TMPRSS6 (11731388_a_at) / Fold change /veh TMPRSS6 (11731388_a_at) / RFU KRTAP10-2 (11738614_at) / Fold change /veh KRTAP10-2 (11738614_at) / RFU ARHGAP8 /// PRR5-ARHGAP8 (11727945_x_at) / Fold change /veh ARHGAP8 /// PRR5-ARHGAP8 (11727945_x_at) / RFU KRTAP5-7 /// NADSYN1 (11734609_at) / Fold change /veh KRTAP5-7 /// NADSYN1 (11734609_at) / RFU RASL12 (11751679_a_at) / Fold change /veh RASL12 (11751679_a_at) / RFU CDKN2B (11736163_a_at) / Fold change /veh CDKN2B (11736163_a_at) / RFU PRF1 (11729649_at) / Fold change /veh PRF1 (11729649_at) / RFU, ZNF638 /// ZNF638-IT1 / Fold change vs veh, ZNF638 /// ZNF638-IT1 / RFU, PANK3 / Fold change vs veh, PANK3 / RFU, SH3YL1 / Fold change vs veh, SH3YL1 / RFU, ZEB2 / Fold change vs veh, ZEB2 / RFU, NRIP1 / Fold change vs veh, NRIP1 / RFU, PTTG1IP / Fold change vs veh, PTTG1IP / RFU, CAPN2 / Fold change vs veh, CAPN2 / RFU, MED14 / Fold change vs veh, MED14 / RFU, SNORA58 / Fold change vs veh, SNORA58 / RFU, C1orf63 / Fold change vs veh, C1orf63 / RFU, LRRFIP1 / Fold change vs veh, LRRFIP1 / RFU, NDUFAF7 / Fold change vs veh, NDUFAF7 / RFU, SLC12A2 / Fold change vs veh, SLC12A2 / RFU, IBTK / Fold change vs veh, IBTK / RFU, ESF1 / Fold change vs veh, ESF1 / Fold change vs veh, TMEM50B / RFU, TAOK1 / Fold change vs veh, TAOK1 / RFU, ACBD3 / Fold change vs veh, ACBD3 / RFU, TMA16 / Fold change vs veh, TMA16 / RFU, RWDD3 / Fold change vs veh, RWDD3 / RFU, BCAT1 / Fold change vs veh, BCAT1 / RFU, EDEM3 / Fold change vs veh, EDEM3 / RFU, TMEM33 / Fold change vs veh, TMEM33 / RFU, WDR75 / Fold change vs veh, WDR75 / RFU, AHCTF1 / Fold change vs veh, AHCTF1 / RFU, TFRC / Fold change vs veh, TFRC / RFU, ZDHHC17 / Fold change vs veh, ZDHHC17 / RFU, NOM1 / Fold change vs veh, NOM1 / RFU, ARL8B / Fold change vs veh, ARL8B / RFU, ZBTB11 / Fold change vs veh, ZBTB11 / RFU, TAMM41 / Fold change vs veh, TAMM41 / RFU, KIAA1704 /// LOC100996395 / Fold change vs veh, KIAA1704 /// LOC100996395 / RFU, ING1 / Fold change vs veh, ING1 / RFU, TRMT61B / Fold change vs veh, TRMT61B / RFU, FUBP3 / Fold change vs veh, FUBP3 / RFU, TP53 / Fold change vs veh, TP53 / RFU, TNKS2 / Fold change vs veh, TNKS2 / RFU, ZFP14 / Fold change vs veh, ZFP14 / RFU, ACTR2 / Fold change vs veh, ACTR2 / RFU, PPP3R1 / Fold change vs veh, PPP3R1 / RFU, PIK3R1 / Fold change vs veh, PIK3R1 / RFU, HNRNPA1 / Fold change vs veh, HNRNPA1 / RFU, RNF170 / Fold change vs veh, RNF170 / RFU, ZNF28 / Fold change vs veh, ZNF28 / RFU, RNGTT / Fold change vs veh, RNGTT / RFU, OGT / Fold change vs veh, OGT / RFU, BRD1 / Fold change vs veh, BRD1 / RFU, MARS / Fold change vs veh, MARS / RFU, ZNF655 / Fold change vs veh, ZNF655 / RFU, FAHD1 / Fold change vs veh, FAHD1 / RFU, BDP1 / Fold change vs veh, BDP1 / RFU, LRRCC1 / Fold change vs veh, LRRCC1 / RFU, ARID1A / Fold change vs veh, ARID1A / RFU, ZNF146 / Fold change vs veh, ZNF146 / RFU, ZNF330 / Fold change vs veh, ZNF330 / RFU, GPN3 / Fold change vs veh, GPN3 / RFU, C9orf123 / Fold change vs veh, C9orf123 / RFU, N4BP2L2 / Fold change vs veh, N4BP2L2 / RFU, ARFIP1 / Fold change vs veh, ARFIP1 / RFU, FAM179B / Fold change vs veh, FAM179B / RFU, BCL10 / Fold change vs veh, BCL10 / RFU, UHRF1BP1L / Fold change vs veh, UHRF1BP1L / RFU, BET1 / Fold change vs veh, BET1 / RFU, CNOT2 / Fold change vs veh, CNOT2 / RFU, ZNF268 / Fold change vs veh, ZNF268 / Fold change vs veh, ZNF507 / RFU, DGCR2 / Fold change vs veh, DGCR2 / RFU, WDSUB1 / Fold change vs veh, WDSUB1 / Fold change vs veh, HSP90B1 /// MIR3652 / RFU, ADSS / Fold change vs veh, ADSS / RFU, GK / Fold change vs veh, GK / RFU, ZNF148 / Fold change vs veh, ZNF148 / RFU, TAF9 / Fold change vs veh, TAF9 / RFU, SLC1A5 / Fold change vs veh, SLC1A5 / RFU, SLMO2 / Fold change vs veh, SLMO2 / RFU, ABCC4 / Fold change vs veh, ABCC4 / RFU, LOC101060439 /// RAP1B / Fold change vs veh, LOC101060439 /// RAP1B / RFU, RFX7 / Fold change vs veh, RFX7 / RFU, GTPBP10 / Fold change vs veh, GTPBP10 / RFU, CNEP1R1 / Fold change vs veh, CNEP1R1 / RFU, BIVM-ERCC5 /// ERCC5 / Fold change vs veh, BIVM-ERCC5 /// ERCC5 / RFU, ILF3 / Fold change vs veh, ILF3 / RFU 11762660_at / Fold change /veh 11762660_at / RFU VCAN (11757783_s_at) / Fold change /veh VCAN (11757783_s_at) / RFU DDX43 (11728927_at) / Fold change /veh DDX43 (11728927_at) / RFU KRT8 (11758188_x_at) / Fold change /veh KRT8 (11758188_x_at) / RFU NKD1 (11759106_at) / Fold change /veh NKD1 (11759106_at) / RFU SRD5A1 (11742802_a_at) / Fold change /veh SRD5A1 (11742802_a_at) / RFU TPSAB1 /// TPSB2 (11721975_s_at) / Fold change /veh TPSAB1 /// TPSB2 (11721975_s_at) / RFU GSTM3 (11746129_a_at) / Fold change /veh GSTM3 (11746129_a_at) / RFU IL23R (11737362_x_at) / Fold change /veh IL23R (11737362_x_at) / RFU TMEM51 (11727254_a_at) / Fold change /veh TMEM51 (11727254_a_at) / RFU PIWIL2 (11732686_x_at) / Fold change /veh PIWIL2 (11732686_x_at) / RFU ORM1 (11744905_x_at) / Fold change /veh ORM1 (11744905_x_at) / RFU CCDC152 (11743942_at) / Fold change /veh CCDC152 (11743942_at) / RFU ECM1 (11717891_a_at) / Fold change /veh ECM1 (11717891_a_at) / RFU IL23R (11748794_a_at) / Fold change /veh IL23R (11748794_a_at) / RFU TNFAIP8L3 (11732012_x_at) / Fold change /veh TNFAIP8L3 (11732012_x_at) / RFU MBOAT4 (11741988_at) / Fold change /veh MBOAT4 (11741988_at) / RFU 11764193_at / Fold change /veh 11764193_at / RFU TMEM53 (11763286_at) / Fold change /veh TMEM53 (11763286_at) / RFU MAGEB2 (11727129_at) / Fold change /veh MAGEB2 (11727129_at) / RFU TMEM200A (11744735_a_at) / Fold change /veh TMEM200A (11744735_a_at) / RFU CCDC152 (11751479_a_at) / Fold change /veh CCDC152 (11751479_a_at) / RFU FAM211A (11726209_a_at) / Fold change /veh FAM211A (11726209_a_at) / RFU RGS16 (11746705_a_at) / Fold change /veh RGS16 (11746705_a_at) / RFU VCAN (11755009_s_at) / Fold change /veh VCAN (11755009_s_at) / RFU RHOB (11743442_s_at) / Fold change /veh RHOB (11743442_s_at) / RFU RGS16 (11720943_a_at) / Fold change /veh RGS16 (11720943_a_at) / RFU RGS16 (11720944_at) / Fold change /veh RGS16 (11720944_at) / RFU, VPS4B / Fold change vs veh, VPS4B / RFU, CREB1 / Fold change vs veh, CREB1 / RFU, DNAJC13 / Fold change vs veh, DNAJC13 / RFU, GNAQ / Fold change vs veh, GNAQ / RFU, CDK5R1 / Fold change vs veh, CDK5R1 / RFU, ZRANB3 / Fold change vs veh, ZRANB3 / RFU, CUL4A / Fold change vs veh, CUL4A / RFU, CCNY / Fold change vs veh, CCNY / RFU, UFL1 / Fold change vs veh, UFL1 / RFU, COG3 / Fold change vs veh, COG3 / RFU, DIAPH2 / Fold change vs veh, DIAPH2 / RFU, SKA2 / Fold change vs veh, SKA2 / RFU, AFF3 / Fold change vs veh, AFF3 / RFU, LMF1 / Fold change vs veh, LMF1 / RFU, IPO11 / Fold change vs veh, IPO11 / RFU, DFFB / Fold change vs veh, DFFB / RFU, FOXP1 / Fold change vs veh, FOXP1 / RFU, CARD8 / Fold change vs veh, CARD8 / RFU, STRN3 / Fold change vs veh, STRN3 / RFU, ADK / Fold change vs veh, ADK / RFU, RASSF2 / Fold change vs veh, RASSF2 / RFU, WIPF1 / Fold change vs veh, WIPF1 / RFU, LARP1B / Fold change vs veh, LARP1B / RFU, RASA1 / Fold change vs veh, RASA1 / RFU, RB1 / Fold change vs veh, RB1 / RFU, PPFIA1 / Fold change vs veh, PPFIA1 / RFU, MAT2A / Fold change vs veh, MAT2A / RFU, CCT5 / Fold change vs veh, CCT5 / RFU, WDR92 / Fold change vs veh, WDR92 / RFU, CUX1 / Fold change vs veh, CUX1 / RFU, TTC7A / Fold change vs veh, TTC7A / RFU, TMEM135 / Fold change vs veh, TMEM135 / RFU, DEPTOR / Fold change vs veh, DEPTOR / RFU, CPM / Fold change vs veh, CPM / RFU, DNAJB6 / Fold change vs veh, DNAJB6 / RFU, CACNA2D3 / Fold change vs veh, CACNA2D3 / RFU, DTX4 / Fold change vs veh, DTX4 / RFU, TFCP2 / Fold change vs veh, TFCP2 / RFU, GMCL1 /// GMCL1P1 / Fold change vs veh, GMCL1 /// GMCL1P1 / RFU, AEBP2 / Fold change vs veh, AEBP2 / RFU, SNHG1 /// SNORD22 /// SNORD25 /// SNORD26 /// SNORD27 /// SNORD28 /// SNORD29 /// SNORD31 / Fold change vs veh, SNHG1 /// SNORD22 /// SNORD25 /// SNORD26 /// SNORD27 /// SNORD28 /// SNORD29 /// SNORD31 / Fold change (Aza/veh), C12orf56 (ProbeSet 11735607_a_at) / Fold change (ACY-1035/veh), C12orf56 (ProbeSet 11735607_a_at) / Fold change (Aza/veh), FGFR1OP (ProbeSet 11751329_s_at) / Fold change (ACY-1035/veh), FGFR1OP (ProbeSet 11751329_s_at) / Fold change (Aza/veh), VPS36 (ProbeSet 11739960_a_at) / Fold change (ACY-1035/veh), VPS36 (ProbeSet 11739960_a_at) / RFU SYPL1 (11715823_x_at) / Fold change /veh SYPL1 (11715823_x_at) / RFU IGFBP7 (11715501_s_at) / Fold change /veh IGFBP7 (11715501_s_at) / RFU REEP3 (11722064_at) / Fold change /veh REEP3 (11722064_at) / RFU IGLL1 (11728026_x_at) / Fold change /veh IGLL1 (11728026_x_at): dose or concentration left out as unconfirmed.

Consider `Nc1ccc(-c2cccs2)cc1NC(=O)c1ccc2c(c1)cc(C1CC1)n2CCN1CCOCC1` [ACY-1035], for which the “RFU, ZRANB3” value was found to be 82.93 RFU.

The values are drawn from article PMC5218480 (PLoS ONE, 2017).
